EC50 and GI50 data for 2 compounds are collected here from patent publication US20070099877A1, “N-aryl-thienopyrimidin-4-amines and analogs as activators of caspases and inducers of apoptosis and the use thereof” (Cytovia, Inc., priority 2005, published 2007).

What all share (format): cell-based
Experiment [1] deals with human hepatocellular carcinoma cell line SNU398. Put plainly: Caspase cascade activation in SNU398 cells. The conditions noted are these: Homo sapiens, SNU-398, 48 h, read-out: Caspase activation Potency EC50 SNU398 (48 h). In outline:
(§1)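 Cells were exposed to compound at 0.016 to 10 μM final for 24 h or 48 h at 37 °C. They were then lysed with 14 μM N-(Ac-DEVD)-N′-ethoxycarbonyl-R110 in lysolecithin/DTT/PIPES buffer pH 7.2 for 3 h at room temperature (ex 485/em 530 nm). EC50 came from a sigmoidal fit of net RFU relative to untreated control.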

Experiment [2] relates to human colon carcinoma cell line HCT116. The experiment can be described thus: Caspase cascade activation in HCT116 cells. The conditions noted are these: Homo sapiens, HCT-116, 48 h, read-out: Caspase activation Potency EC50 HCT116 (48 h). In outline: as §1
Experiment [3] has as its system multi-drug resistant (MDR) murine leukemia cell line P388ADR. Put plainly: Inhibition of cell proliferation (GI50) in P388/ADR cells. The following applies: Mus musculus, Table IV, read-out: GI50 in Multi-Cancer Cells P388/ADR. The protocol: (§2) Human breast cancer cell lines T-47D, MX-1 and MDAMB435, human colon cancer cell line HT29, and human lung cancer cell line H1299 were grown and harvested as in Example 75. An aliquot of […] of cells (4.4×10^4 cells/mL) was added to a well of a 96-well microtiter plate containing 5 μL of a 10% DMSO in RPMI-1640 media solution containing 10 nM to 100 μM of N-(2,5-dimethoxyphenyl)-2-methylthieno[3,2-d]pyrimidin-4-amine (1 nM to 10 μM final). An aliquot of 45 μL of cells was added to a well of a 96-well microtiter plate containing 5 μL of a 10% DMSO in RPMI-1640 media solution without compound as the control sample for maximal cell proliferation (Lmax). The samples were mixed by agitation and then incubated at 37° C. for 48 h in a 5% CO2-95% humidity incubator. After incubation, the samples were removed from the incubator and 25 μL of CellTiter-Glo™ reagent (Promega) was added. The samples were mixed by agitation and incubated at room temperature for 10-15 min. Plates were then read using a luminescent plate reader (Model SPECTRAfluor Plus, Tecan) to give Ltest values.
(§3) Baseline for GI50 (dose for 50% inhibition of cell proliferation) of initial cell numbers was determined by adding an aliquot of 45 μL of cells or 45 μL of media, respectively, to wells of a 96-well microtiter plate containing 5 μL of a 10% DMSO in RPMI-1640 media solution. The samples were mixed by agitation and then incubated at 37° C. for 0.5 h in a 5% CO2-95% humidity incubator. After incubation, the samples were removed from the incubator and 25 μL of CellTiter-Glo™ reagent (Promega) was added. The samples were mixed by agitation and incubated at 37° C. for 10-15 min at room temperature in a 5% CO2-95% humidity incubator. Fluorescence was read as above, (LStart) defining luminescence for initial cell number used as baseline in GI50 determinations.
(§4) GI50 (dose for 50% inhibition of cell proliferation) is the concentration where [(LTest−Lstart)/(LMax−Lstart)]=0.5.
(§5) Several compounds were tested in multi cancer cell lines, including human breast cancer cell lines T-47D, MX-1, SKBR3 and MDAMB435, human hepatocellular carcinoma cell line SNU398, human colon carcinoma cell line HCT116, human sarcoma cell line MES-SA and multi-drug resistant (MDR) human sarcoma cell line MES-SA/ADR, murine leukemia cell line P388 and multi-drug resistant (MDR) murine leukemia cell line P388ADR, and the data are summarized in Table IV.

The test system of experiment [4] is human sarcoma cell line MES-SA. Put plainly: Inhibition of cell proliferation (GI50) in MES-SA cells. The following applies: Table IV, read-out: GI50 in Multi-Cancer Cells MES-SA. The method, then: as §2, §3, §4, §5
In experiment [5] the test system is human breast cancer cell line MDAMB435. The experiment can be described thus: Inhibition of cell proliferation (GI50) in MDAMB435 cells. The method, then:
as §2, §3, §4

The test system of experiment [6] is human hepatocellular carcinoma cell line SNU398. Put plainly: Inhibition of cell proliferation (GI50) in SNU398 cells. The following applies: SNU-398, Table IV, read-out: GI50 in Multi-Cancer Cells SNU398. The protocol:
as §2, §3, §4, §5

Experiment [7] concerns human breast cancer cell line MX-1. Put plainly: Inhibition of cell proliferation (GI50) in MX-1 cells. The following applies: MX1 cells. The method, then:
as §2, §3, §4

Experiment [8] has as its system human breast cancer cell line T-47D. Put plainly: Inhibition of cell proliferation (GI50, CellTiter-Glo) in T-47D cells. The following applies: T47D cells. The protocol:
as §2, §3, §4
A general note: ATP-based viability assays read luminescence as a measure of living cells.

[9] abbreviates: MDA-MB-435, Table IV, read-out: GI50 in Multi-Cancer Cells MDAMB435.
[10] abbreviates: Table IV, read-out: GI50 in Multi-Cancer Cells MX1.
The mark [11] stands for this setting: Table IV, read-out: GI50 in Multi-Cancer Cells T47D.

Where a name gives a salt, the structure may show the parent alone. Read-outs that look alike come from different tables or passages of the source.

`COc1cc(Nc2ncnc3ccsc23)cc(OC)c1` [Example 12, N-(3,5-Dimethoxyphenyl)thieno[3,2-d]pyrimidin-4-amine hydrochloride]: the EC50 (in general, the concentration that produces a half-maximal response) in experiment [1] came to 249 nM; in experiment [2], 279 nM. Moreover, the GI50 in experiment [3] is 296 nM; in experiment [4] it was 364 nM; in experiment [5] (setting [9]) it was 105 nM; in experiment [6] it was 706 nM; in experiment [7] (setting [10]) it was 17 nM; in experiment [8] (setting [11]), 20 nM.
With `COc1ccc(OC)c(Nc2ncnc3ccsc23)c1` [Example 2, N-(2,5-Dimethoxyphenyl)thieno[3,2-d]pyrimidin-4-amine], the EC50 in experiment [1] worked out at 1610 nM; in experiment [2] it was 5000 nM. Further, the GI50 in experiment [3] came to 2600 nM; in experiment [4], 5190 nM; in experiment [5] (MDA-MB-435, Table III, 48 h, read-out: GI50 in Cancer Cells MDAMB435) it was 756 nM; in experiment [5] (setting [9]), 1070 nM; in experiment [6], 2100 nM; in experiment [7] (Table III, 48 h, read-out: GI50 in Cancer Cells MX1) it was 300 nM. Moreover, the GI50 is 800 nM in experiment [7] (setting [10]); 65 nM in experiment [8] (Table III, 48 h, read-out: GI50 in Cancer Cells T47D); 340 nM in experiment [8] (setting [11]).
